Experimental data from patent US8530489B2 (Vertex Pharmaceuticals Incorporated, priority 2006, dated 2013).

The compounds below were run against PLK1 (Homo sapiens, UniProt P53350) (assay: PLK1 Inhibition Assay I (radioactive-phosphate incorporation)). Conditions: Ki(app); PLK1 Inhibition Assay I or II (table does not say which).
Assay type: biochemical
In short: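 Ki(app) values came from non-linear regression of initial rates after background subtraction, with phosphopeptide measured by phosphocellulose filter binding and scintillation counting. PLK1 at 2 nM was preincubated with compound (typically from 10 μM, 2-fold dilutions) for 10 min, then run 240 min at 25° C with 350 μM [γ-33P]ATP and 450 μM peptide substrate in HEPES pH 7.5 buffer.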

Sequence of PLK1 (P53350 whole entry): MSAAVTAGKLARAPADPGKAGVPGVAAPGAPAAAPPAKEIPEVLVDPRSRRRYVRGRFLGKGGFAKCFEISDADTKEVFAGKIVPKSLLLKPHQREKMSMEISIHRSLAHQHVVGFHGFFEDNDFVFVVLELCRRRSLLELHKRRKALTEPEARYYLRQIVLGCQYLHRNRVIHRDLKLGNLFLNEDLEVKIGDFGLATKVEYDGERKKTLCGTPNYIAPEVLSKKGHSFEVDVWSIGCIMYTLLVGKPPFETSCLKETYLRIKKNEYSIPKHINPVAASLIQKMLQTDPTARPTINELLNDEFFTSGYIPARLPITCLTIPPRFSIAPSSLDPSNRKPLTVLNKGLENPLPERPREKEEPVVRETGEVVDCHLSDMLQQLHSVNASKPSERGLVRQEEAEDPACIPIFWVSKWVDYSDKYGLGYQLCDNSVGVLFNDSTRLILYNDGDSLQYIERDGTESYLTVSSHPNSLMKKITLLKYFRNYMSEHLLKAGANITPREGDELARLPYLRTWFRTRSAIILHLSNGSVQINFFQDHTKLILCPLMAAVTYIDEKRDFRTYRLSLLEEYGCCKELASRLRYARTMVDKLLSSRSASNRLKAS

C[C@@H](Nc1ncc(C#N)c(-c2c[nH]c3ncc(C(F)(F)F)cc23)n1)C1CCN(C(=O)C(O)CN)CC1 (stereo partly drawn) [Compound I-260, 2-((1R)-1-(1-(3-amino-2-hydroxypropanoyl)piperidin-4-yl)ethylamino)-4-(5-(trifluoromethyl)-1H-pyrrolo[2,3-b]pyridin-3-yl)pyrimidine-5-carbonitrile] and C[C@@H](O)C(=O)N1CCC([C@@H](C)Nc2ncc(C#N)c(-c3c[nH]c4ncc(C(F)(F)F)cc34)n2)CC1 [Compound I-207, 2-((R)-1-(1-((R)-2-hydroxypropanoyl)piperidin-4-yl)ethylamino)-4-(5-(trifluoromethyl)-1H-pyrrolo[2,3-b]pyridin-3-yl)pyrimidine-5-carbonitrile] cannot be ordered by Ki: under 3 nM for the first, under 3 nM for the second.

CC(C)[C@@H](CO)Nc1ncc(C#N)c(-c2c[nH]c3ncc(C(F)(F)F)cc23)n1 [Compound I-58, 2-((S)-1-hydroxy-3-methylbutan-2-ylamino)-4-(5-(trifluoromethyl)-1H-pyrrolo[2,3-b]pyridin-3-yl)pyrimidine-5-carbonitrile] and C[C@H](O)[C@@H](CO)Nc1ncc(C#N)c(-c2c[nH]c3ncc(C(F)(F)F)cc23)n1 [Compound I-108, 2-((2R,3S)-1,3-dihydroxybutan-2-ylamino)-4-(5-(trifluoromethyl)-1H-pyrrolo[2,3-b]pyridin-3-yl)pyrimidine-5-carbonitrile] fall in the same range of Ki: 3 to 40 nM for the first, 3 to 40 nM for the second.

First: C[C@@H](Nc1ncc(C#N)c(-c2c[nH]c3ncc(C(F)(F)F)cc23)n1)C1CCN(C(=O)[C@H](N)c2ccccc2)CC1 [Compound I-248, 2-((R)-1-(1-((R)-2-amino-2-phenylacetyl)piperidin-4-yl)ethylamino)-4-(5-(trifluoromethyl)-1H-pyrrolo[2,3-b]pyridin-3-yl)pyrimidine-5-carbonitrile]
Second: C[C@@H](Nc1ncc(C#N)c(-c2c[nH]c3ncc(C(F)(F)F)cc23)n1)C1CCN(C(=O)CC#N)CC1 [Compound I-233, 2-((R)-1-(1-(2-cyanoacetyl)piperidin-4-yl)ethylamino)-4-(5-(trifluoromethyl)-1H-pyrrolo[2,3-b]pyridin-3-yl)pyrimidine-5-carbonitrile]
The Ki of the first is higher: 3 to 40 nM for the first, under 3 nM for the second.

First: N#Cc1cnc(NC2CC2)nc1-c1c[nH]c2ncc(C(F)(F)F)cc12 [Compound I-76, 2-(cyclopropylamino)-4-(5-(trifluoromethyl)-1H-pyrrolo[2,3-b]pyridin-3-yl)pyrimidine-5-carbonitrile]
Second: N#Cc1cnc(NCC2CCOCC2)nc1-c1c[nH]c2ncc(C(F)(F)F)cc12 [Compound I-57, 2-((tetrahydro-2H-pyran-4-yl)methylamino)-4-(5-(trifluoromethyl)-1H-pyrrolo[2,3-b]pyridin-3-yl)pyrimidine-5-carbonitrile]
The Ki of the first is higher: over 40 nM for the first, 3 to 40 nM for the second.

First: CC(C)(Nc1ncc(C#N)c(-c2c[nH]c3ncc(C(F)(F)F)cc23)n1)C(=O)NCCO [IA-14, 2-(5-cyano-4-(5-(trifluoromethyl)-1H-pyrrolo[2,3-b]pyridin-3-yl)pyrimidin-2-ylamino)-N-(2-hydroxyethyl)-2-methylpropanamide]
Second: N#Cc1cnc(NC[C@@H](O)CO)nc1-c1c[nH]c2ncc(C(F)(F)F)cc12 [Compound I-115, 2-((R)-2,3-dihydroxypropylamino)-4-(5-(trifluoromethyl)-1H-pyrrolo[2,3-b]pyridin-3-yl)pyrimidine-5-carbonitrile]
The Ki of the first is higher: over 40 nM for the first, 3 to 40 nM for the second.

COc1ccc(C(C)Nc2ncc(C#N)c(-c3c[nH]c4ncc(C(F)(F)F)cc34)n2)cc1Cl (stereo not shown) [Compound I-84, 2-(1-(3-chloro-4-methoxyphenyl)ethylamino)-4-(5-(trifluoromethyl)-1H-pyrrolo[2,3-b]pyridin-3-yl)pyrimidine-5-carbonitrile] and COc1ccc(C(C)Nc2ncc(C#N)c(-c3c[nH]c4ncc(C(F)(F)F)cc34)n2)cn1 (stereo not shown) [Compound I-52, 2-(1-(6-methoxypyridin-3-yl)ethylamino)-4-(5-(trifluoromethyl)-1H-pyrrolo[2,3-b]pyridin-3-yl)pyrimidine-5-carbonitrile] cannot be ordered by Ki: under 3 nM for the first, under 3 nM for the second.

C=C1CC(C(C)Nc2ncc(C#N)c(-c3c[nH]c4ncc(C(F)(F)F)cc34)n2)C1 (stereo not shown) [Compound I-214, 2-(1-(3-methylenecyclobutyl)ethylamino)-4-(5-(trifluoromethyl)-1H-pyrrolo[2,3-b]pyridin-3-yl)pyrimidine-5-carbonitrile] and CC[C@H](C)Nc1ncc(C#N)c(-c2c[nH]c3ncc(C(F)(F)F)cc23)n1 [Compound I-77, 2-(sec-butylamino)-4-(5-(trifluoromethyl)-1H-pyrrolo[2,3-b]pyridin-3-yl)pyrimidine-5-carbonitrile] fall in the same range of Ki: 3 to 40 nM for the first, 3 to 40 nM for the second.

Compared with N#Cc1cnc(NC2CC2c2ccccc2)nc1-c1c[nH]c2ncc(C(F)(F)F)cc12 (stereo not shown) [Compound I-27, 2-(2-phenylcyclopropylamino)-4-(5-(trifluoromethyl)-1H-pyrrolo[2,3-b]pyridin-3-yl)pyrimidine-5-carbonitrile], N#Cc1cnc(Nc2ccccc2)nc1-c1c[nH]c2ncc(C(F)(F)F)cc12 [Compound I-25, 2-(phenylamino)-4-(5-(trifluoromethyl)-1H-pyrrolo[2,3-b]pyridin-3-yl)pyrimidine-5-carbonitrile] is lower in Ki: over 40 nM for the first, 3 to 40 nM for the second. The second binds more tightly here.

C[C@@H](Nc1ncc(C#N)c(-c2c[nH]c3ncc(C(F)(F)F)cc23)n1)c1ccccc1 [Compound I-6, 2-((R)-1-phenylethylamino)-4-(5-(trifluoromethyl)-1H-pyrrolo[2,3-b]pyridin-3-yl)pyrimidine-5-carbonitrile] and CNS(=O)(=O)c1ccc([C@@H](C)Nc2ncc(C#N)c(-c3c[nH]c4ncc(C(F)(F)F)cc34)n2)cc1 [Compound I-200, 4-((1R)-1-(5-cyano-4-(5-(trifluoromethyl)-1H-pyrrolo[2,3-b]pyridin-3-yl)pyrimidin-2-ylamino)ethyl)-N-methylbenzenesulfonamide] cannot be ordered by Ki: under 3 nM for the first, under 3 nM for the second.

CC(Nc1ncc(C#N)c(-c2c[nH]c3ncc(C(F)(F)F)cc23)n1)c1ccc(N2CCN(C(=O)OC(C)(C)C)CC2)cc1 (stereo not shown) [Compound I-123, tert-butyl 4-(4-(1-(5-cyano-4-(5-(trifluoromethyl)-1H-pyrrolo[2,3-b]pyridin-3-yl)pyrimidin-2-ylamino)ethyl)phenyl)piperazine-1-carboxylate] and C[C@@H](Nc1ncc(C#N)c(-c2c[nH]c3ncc(C(F)(F)F)cc23)n1)c1ccc(N2CCC(N(C)C)CC2)nc1 [Compound I-294, 2-((R)-1-(6-(4-(dimethylamino)piperidin-1-yl)pyridin-3-yl)ethylamino)-4-(5-(trifluoromethyl)-1H-pyrrolo[2,3-b]pyridin-3-yl)pyrimidine-5-carbonitrile] fall in the same range of Ki: 3 to 40 nM for the first, 3 to 40 nM for the second.

First: COCC(=O)N1CCC(C(C)Nc2ncc(C#N)c(-c3c[nH]c4ncc(C(F)(F)F)cc34)n2)CC1 (stereo not shown) [Compound I-183, 2-(1-(1-(2-methoxyacetyl)piperidin-4-yl)ethylamino)-4-(5-(trifluoromethyl)-1H-pyrrolo[2,3-b]pyridin-3-yl)pyrimidine-5-carbonitrile]
Second: COCC(Nc1ncc(C#N)c(-c2c[nH]c3ncc(C(F)(F)F)cc23)n1)C(C)C (stereo not shown) [Compound I-110, 2-(1-methoxy-3-methylbutan-2-ylamino)-4-(5-(trifluoromethyl)-1H-pyrrolo[2,3-b]pyridin-3-yl)pyrimidine-5-carbonitrile]
The Ki of the first is lower: under 3 nM for the first, 3 to 40 nM for the second. The first binds more tightly here.

CC(O)CNc1ncc(C#N)c(-c2c[nH]c3ncc(C(F)(F)F)cc23)n1 (stereo not shown) [Compound I-91, 2-(2-hydroxypropylamino)-4-(5-(trifluoromethyl)-1H-pyrrolo[2,3-b]pyridin-3-yl)pyrimidine-5-carbonitrile] and CCCC(C)Nc1ncc(C#N)c(-c2c[nH]c3ncc(C(F)(F)F)cc23)n1 (stereo not shown) [Compound I-35, 2-(pentan-2-ylamino)-4-(5-(trifluoromethyl)-1H-pyrrolo[2,3-b]pyridin-3-yl)pyrimidine-5-carbonitrile] fall in the same range of Ki: 3 to 40 nM for the first, 3 to 40 nM for the second.

First: CNC(=O)C(C)(C)Nc1ncc(C#N)c(-c2c[nH]c3ncc(Cl)cc23)n1 [IA-8, 2-(4-(5-chloro-1H-pyrrolo[2,3-b]pyridin-3-yl)-5-cyanopyrimidin-2-ylamino)-N,2-dimethylpropanamide]
Second: CC(C)(Nc1ncc(C#N)c(-c2c[nH]c3ncc(Cl)cc23)n1)C(=O)NC1CCCC1 [IA-4, 2-(4-(5-chloro-1H-pyrrolo[2,3-b]pyridin-3-yl)-5-cyanopyrimidin-2-ylamino)-N-cyclopentyl-2-methylpropanamide]
The Ki of the first is higher: over 40 nM for the first, 3 to 40 nM for the second.

Compared with CC(C)Oc1ncc(C#N)c(-c2c[nH]c3ncc(C(F)(F)F)cc23)n1 [EG5, 2-isopropoxy-4-(5-(trifluoromethyl)-1H-pyrrolo[2,3-b]pyridin-3-yl)pyrimidine-5-carbonitrile], C[C@@H](Nc1ncc(C#N)c(-c2c[nH]c3ncc(C(F)(F)F)cc23)n1)c1cnc(O)nc1 [Compound I-302, 2-(I-1-(2-hydroxypyrimidin-5-yl)ethylamino)-4-(5-(trifluoromethyl)-1H-pyrrolo[2,3-b]pyridin-3-yl)pyrimidine-5-carbonitrile] is lower in Ki: over 40 nM for the first, under 3 nM for the second.

Compared with N#Cc1cnc(NCc2ccc(C(F)(F)F)nc2)nc1-c1c[nH]c2ncc(C(F)(F)F)cc12 [Compound I-32, 4-(5-(trifluoromethyl)-1H-pyrrolo[2,3-b]pyridin-3-yl)-2-((6-(trifluoromethyl)pyridin-3-yl)methylamino)pyrimidine-5-carbonitrile], CN(C)c1ccc(CNc2ncc(C#N)c(-c3c[nH]c4ncc(C(F)(F)F)cc34)n2)cc1 [Compound I-59, 2-(4-(dimethylamino)benzylamino)-4-(5-(trifluoromethyl)-1H-pyrrolo[2,3-b]pyridin-3-yl)pyrimidine-5-carbonitrile] is lower in Ki: over 40 nM for the first, 3 to 40 nM for the second.

CN(Cc1ccccc1)c1ncc(C#N)c(-c2c[nH]c3ncc(C(F)(F)F)cc23)n1 [Compound I-8, 2-(benzyl(methyl)amino)-4-(5-(trifluoromethyl)-1H-pyrrolo[2,3-b]pyridin-3-yl)pyrimidine-5-carbonitrile] gave a Ki of over 40 nM.
